Results: patent publication US11186585B2 (priority 2018, dated 2021)
Several values for one entry are separate records, joined by “and”; a condition that tells them apart may be missing. Equal values may be shown once. Entries after “also recorded” stand apart in the source; their conditions may differ.

Experiments:
[1] = in vivo; cited from earlier work
Sprague-Dawley rats = assay: Antinociceptive activity, cold ethanol tail-flick test after oral gavage; type: in vivo, rat; conditions: for Analgesia (rat): oral gavage in sesame oil, 60 uM/kg, one dose, tail-flick at −20° C., cutoff 40 seconds
healthy volunteers [2] = assay: Double-blind trial, heat pain threshold (hot water at 50° C.) after oral capsule; type: in vivo, human; conditions: for % MPE (analgesia): oral, individual data, 33 45 mg, NB 35 mg, 39 68 mg
Protocol: Double-blind, NB hydrochloride and NB-39 controlled, trial of the antinociceptive effect of oral NB-33 in healthy volunteers. […] Each week a healthy volunteer would receive a pill from the assigned set in a random fashion and take it orally. […]
(§1) Following one week of a wash out period, each volunteer repeated the protocol until all pills from the assigned set were administered. The individual data for heat pain threshold as % MPE=[(test latency−baseline latency)/(baseline latency)]×100 and for miosis as % MPE=[(test diameter−baseline diameter)/(baseline diameter)]×100 are shown in Table 2 and Table 3 respectively.
(§2) Independent samples t-test was used to compare the means of % MPE analgesia and miosis in the two pairs of samples: NB-33 and NB and NB-33 and NB-39. All analyses were made using SPSS (v.25). • Bold indicates statistical significance at α=0.05

healthy volunteers [3] = assay: Double-blind trial, miosis after oral capsule; type: in vivo, human; conditions: for % MPE (miosis): oral, individual data, 33 45 mg, NB 35 mg, 39 68 mg
Protocol: Double-blind, NB hydrochloride and NB-39 controlled, trial of the antinociceptive effect of oral NB-33 in healthy volunteers. Each of the three healthy volunteers was assigned a set of 6 non-transparent gelatin capsules as follows: 2×NB hydrochloride (MW=393.4; 39 mg), 2×NB-33 (MW=451.6; 45 mg) and 2×NB-39 (MW=680.0; 68 mg). Each week a healthy volunteer would receive a pill from the assigned set in a random fashion and take it orally. At T=0 hr, 0.25 hr, 0.5 hr, 1 hr, 1.5 hr, 2 hr, 3 hr and 5 hr followed oral administration a heat pain threshold was measured (hot water at 50° C.) as well as miosis.
as §1, §2

[4] = Stability in human plasma; conditions: 37° C., acceptance criteria: NLT than 20% of hydrolysis after 4 hrs
rats = assay: Randall-Selitto test after SC dose; type: in vivo, rat; conditions: Randall-Selitto, rats
Excerpt: FIG. 13 illustrate in the graphical form the results for 1310 NB-33, marked 1310, in comparison to the base NB compound NB, marked 1320 in FIG. 13.

[5] = test system: Human recombinant opiate receptor (mu, kappa or delta); assay: Human recombinant opiate receptor panel, overall profile in words; type: cell-based; conditions: CHO-K1 cells, cAMP
Protocol: (§3) Human recombinant opiate receptor (mu, kappa or delta) expressed in CHO-K1 cells were used. Test compound (NB-33)/or vehicle was incubated with the cells (4×10E5/mL) in modified HBSS pH 7.4 buffer at […] for 30 min. The reaction was evaluated for cAMP levels by TR-FRET. Compounds were screened at 0.3, 1 and 3 uM. by Eurofins Pharma Discovery Services.
as §3, with “(NX-90)/or” for “(NB-33)/or”, “levels (cAMP and/or calcium flux)” for “levels”, “0.1, 0.3 and” for “0.3,”, “uM” for “and 3 uM.”

[6] = Stability in the simulated gastro-intestinal fluid (sGIF); conditions: 0.5% pepsine in 0.1N aqueous HCl, 37° C.; acceptance: NLT 80% of the derivative still intact after 4 hrs

Oc1ccc2c3c1OC1C(O)CCC4(O)C(C2)N(CC2CCC2)CCC314 (stereo not shown) [NB, 3-(cyclobutylmethyl)-1,2,3,4,5,6,7,7a-octahydro-4aH-4,12-methanobenzofuro[3,2-e]isoquinoline-4a,7,9-triol]
oral bioavailability [1]: low
Analgesia (rat) (Sprague-Dawley rats): moderate
% MPE (analgesia) (healthy volunteers [2]; 0 hr (baseline)): 0.0 % MPE
% MPE (analgesia) (healthy volunteers [2]; 0.25 hr): 0.0 % MPE and 29.5 % MPE and 5.3 % MPE (2×) and 56.3 % MPE and 21.4 % MPE
% MPE (analgesia) (healthy volunteers [2]; 0.5 hr): 5.6 % MPE and 39.3 % MPE and 10.5 % MPE and 50.0 % MPE and 21.1 % MPE and 35.7 % MPE
% MPE (analgesia) (healthy volunteers [2]; 1 hr): 50.0 % MPE and 34.4 % MPE and 42.1 % MPE and 87.5 % MPE and 47.4 % MPE and 57.1 % MPE
% MPE (analgesia) (healthy volunteers [2]; 1.5 hr): 100.0 % MPE and 54.1 % MPE and 68.4 % MPE and 112.5 % MPE and 73.7 % MPE and 78.6 % MPE
% MPE (analgesia) (healthy volunteers [2]; 2 hr): 94.4 % MPE and 54.1 % MPE and 94.7 % MPE and 162.5 % MPE and 57.9 % MPE and 50.0 % MPE
% MPE (analgesia) (healthy volunteers [2]; 2.5 hr): 66.7 % MPE and 82.0 % MPE and 57.9 % MPE and 106.3 % MPE and 36.8 % MPE and 35.7 % MPE
% MPE (analgesia) (healthy volunteers [2]; 3 hr): 22.2 % MPE and 32.8 % MPE and 68.4 % MPE and 37.5 % MPE and 57.9 % MPE and 0.0 % MPE
% MPE (analgesia) (healthy volunteers [2]; 5 hr): −5.6 % MPE and 27.9 % MPE and 5.3 % MPE (2×) and 26.7 % MPE and 0.0 % MPE
% MPE (miosis) (healthy volunteers [3]; 0 hr (baseline)): 0.0 % MPE
% MPE (miosis) (healthy volunteers [3]; 0.25 hr): 3.1 % MPE and 9.4 % MPE and 6.7 % MPE and 0.0 % MPE and 3.2 % MPE and 2.9 % MPE
% MPE (miosis) (healthy volunteers [3]; 0.5 hr): 9.4 % MPE (2×) and 37.5 % MPE and 0.0 % MPE and 9.7 % MPE and 8.8 % MPE
% MPE (miosis) (healthy volunteers [3]; 1 hr): 21.9 % MPE (2×) and 46.9 % MPE and 6.7 % MPE and 45.2 % MPE and −2.9 % MPE
% MPE (miosis) (healthy volunteers [3]; 1.5 hr): 17.2 % MPE (2×) and 65.6 % MPE and 25.0 % MPE and 45.2 % MPE and 29.4 % MPE
% MPE (miosis) (healthy volunteers [3]; 2 hr): 18.8 % MPE and 31.3 % MPE (2×) and 55.6 % MPE and 58.1 % MPE and 11.8 % MPE
% MPE (miosis) (healthy volunteers [3]; 2.5 hr): 18.8 % MPE and 3.1 % MPE and 50.0 % MPE and 25.0 % MPE and 25.8 % MPE and 26.5 % MPE
% MPE (miosis) (healthy volunteers [3]; 3 hr): 6.2 % MPE (2×) and 33.3 % MPE and 21.9 % MPE and 16.1 % MPE and 20.6 % MPE
% MPE (miosis) (healthy volunteers [3]; 5 hr): 6.2 % MPE (2×) and 3.1 % MPE and 22.2 % MPE and 9.7 % MPE and 7.8 % MPE

C/C=C/C=C/C(=O)Oc1ccc2c3c1OC1C(O)CCC4(O)C(C2)N(CC2CCC2)CCC314 (stereo not shown) [NB-33, 3-(cyclobutylmethyl)-4a,7-dihydroxy-2,3,4,4a,5,6,7,7a-octahydro-1H-4,12-methanobenzofuro[3,2-e]isoquinolin-9-yl (2E,4E)-hexa-2,4-dienoate]
Stable in plasma [4]: No
analgesic properties vs equimolar dose of the parent opioid NB, in words (Graph 1, FIG. 13) (rats): superior analgesic properties
pharmacological profile at opiate receptors, in words [5]: not a pharmacologically inert compound
Stable in sGIF [6]: Yes
analgesia in rats, in words (Sprague-Dawley rats; given orally, compared with equivalent dose of Nalbuphine (parent opioid)): excellent and superior results; also recorded: better analgesia than the parent opioid
Analgesia (rat) (Sprague-Dawley rats): Excellent
% MPE (analgesia) (healthy volunteers [2]; 0 hr (baseline)): 0.0 % MPE
% MPE (analgesia) (healthy volunteers [2]; 0.25 hr): 0.0 % MPE (2×) and 8.3 % MPE and 3.7 % MPE and 31.3 % MPE and 30.0 % MPE
% MPE (analgesia) (healthy volunteers [2]; 0.5 hr): 19.2 % MPE and 24.0 % MPE and 66.7 % MPE and 48.1 % MPE and 37.5 % MPE (2×)
% MPE (analgesia) (healthy volunteers [2]; 1 hr): 100.0 % MPE and 80.0 % MPE and 183.3 % MPE and 59.3 % MPE and 50.0 % MPE and 67.5 % MPE
% MPE (analgesia) (healthy volunteers [2]; 1.5 hr): 115.4 % MPE and 140.0 % MPE and 87.5 % MPE and 114.8 % MPE and 68.8 % MPE and 97.5 % MPE
% MPE (analgesia) (healthy volunteers [2]; 2 hr): 111.5 % MPE and 124.0 % MPE and 191.7 % MPE and 185.2 % MPE and 81.3 % MPE and 157.5 % MPE
% MPE (analgesia) (healthy volunteers [2]; 2.5 hr): 119.2 % MPE and 96.0 % MPE and 112.5 % MPE (2×) and 133.3 % MPE and 31.3 % MPE
% MPE (analgesia) (healthy volunteers [2]; 3 hr): 157.7 % MPE and 60.0 % MPE and 45.8 % MPE and 118.5 % MPE and 25.0 % MPE and 27.5 % MPE
% MPE (analgesia) (healthy volunteers [2]; 5 hr): 115.4 % MPE and 24.0 % MPE and 20.8 % MPE and 44.4 % MPE and 18.8 % MPE and 22.5 % MPE
analgesia in humans, in words (healthy volunteers [2]; given orally, compared with equivalent dose of Nalbuphine (NB) and NB-39): superior
% MPE (miosis) (healthy volunteers [3]; 0 hr (baseline)): 0.0 % MPE
% MPE (miosis) (healthy volunteers [3]; 0.25 hr): 26.7 % MPE and −8.8 % MPE and 0.3 % MPE and 20.0 % MPE and 0.0 % MPE and −5.0 % MPE
% MPE (miosis) (healthy volunteers [3]; 0.5 hr): 26.7 % MPE (3×) and 3.4 % MPE and 33.3 % MPE and −6.3 % MPE
% MPE (miosis) (healthy volunteers [3]; 1 hr): 40.4 % MPE (2×) and 24.0 % MPE and 42.2 % MPE and 33.9 % MPE and 26.7 % MPE
% MPE (miosis) (healthy volunteers [3]; 1.5 hr): 46.2 % MPE and 20.6 % MPE and 36.5 % MPE (2×) and 42.2 % MPE and 33.9 % MPE
% MPE (miosis) (healthy volunteers [3]; 2 hr): 55.9 % MPE and 37.8 % MPE and 46.2 % MPE (2×) and 42.2 % MPE and 42.9 % MPE
% MPE (miosis) (healthy volunteers [3]; 2.5 hr): 65.7 % MPE and 46.4 % MPE and 63.7 % MPE and 29.5 % MPE and 33.9 % MPE and 46.2 % MPE
% MPE (miosis) (healthy volunteers [3]; 3 hr): 29.0 % MPE and 3.4 % MPE and 36.5 % MPE (2×) and 15.6 % MPE and 25.0 % MPE
% MPE (miosis) (healthy volunteers [3]; 5 hr): 32.1 % MPE and 3.4 % MPE and 36.5 % MPE and 9.3 % MPE and 17.2 % MPE and 33.7 % MPE
effect on pupil dilation (miosis) in humans, in words (healthy volunteers [3]; oral administration): superior; also recorded: significant effect
